Source: US12570655B2, “Cysteine covalent modifiers of AKT1 and uses thereof” (Terremoto Biosciences, Inc., priority 2023, dated 2026)

Tests used:
[1] = biological target: T1, AKT1 WT (Homo sapiens, UniProt P31749); experiment: Live cell AKT1 WT target engagement by NanoBRET competitive probe displacement; format: cell-based; settings: HEK293 cells transfected with kinase-NanoLuciferase fusion, 2 h at 37° C.
T1 construct: expressed in transfected cells; host or cells: HEK293
Method in brief: (§1)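 Live-cell competitive tracer displacement in HEK293 expressing NanoLuciferase-tagged kinase. Compound and ATP-competitive tracer (~EC50) are co-incubated 2 h at 37 °C; BRET (E600/E460) gives IC50.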

[2] = biological target: T2, AKT E17K (Homo sapiens, UniProt P31749, DEL120-128/E133D/E17K/G130S/INS132HT/S129A); experiment: Compound 13/AKT E17K co-crystallization complex, crystal structure; format: binding; settings: FIG. 2C
T2 construct: Akt1(DrLink)-WT/E17K were gene synthesized and cloned by Gibson assembly into the pFastBac vector; His8 followed by TEV site (MSHHHHHHHHGSENLYFQS) (N); DrLink (replaced PH-kinase interdomain linker, part of the construct's name); made in house; host or cells: Akt1(DrLink): baculovirus/Sf9; NB41: E. coli Rosetta 2(DE3)pLysS

[3] = biological target: T3, AKT1 WT (Homo sapiens, UniProt P31749, DEL120-128/E133D/G130S/INS132HT/S129A); experiment: Co-crystallization showing covalent complex formation with AKT1 WT; settings: AKT1(DrLink)-WT-NB41 complex, electron density
T3 construct: Akt1(DrLink)-WT/E17K were gene synthesized and cloned by Gibson assembly into the pFastBac vector; His8 followed by TEV site (MSHHHHHHHHGSENLYFQS) (N); DrLink (replaced PH-kinase interdomain linker, part of the construct's name); made in house; host or cells: Akt1(DrLink): baculovirus/Sf9; NB41: E. coli Rosetta 2(DE3)pLysS
Procedure: (§2) Akt1(DrLink)-NB41 Complex Formation
(§3) NB41 was added to AKT(DrLink)-WT/E17K using a 1.2:1 molar ratio and incubated for 10 minutes at 4° C. Final concentration of 10 mM EDTA was then added to this complex. The complex was purified by gel filtration on Superdex 200 (10/300 GL) column (gel filtration buffer: 20 mM HEPES pH 8.0, 20 mM NaCl, 5 mM DTT). The resulting complex was then concentrated to […] and flash-frozen in liquid nitrogen and stored at −80° C. This complex was then used for crystal formation.
(§4) Crystallization, Data Collection and Structure Determination
(§5) 6 mg/mL AKT1 WT or E17K DrLink-NB41 complex is incubated with 1 mM TMB Compound 13 on ice for 2 hours prior to crystallization trials. Crystals were obtained by the vapor diffusion technique at 20′C after mixing an equal volume of the complex with the well solution containing 17-23% PEG3350, 200 mM Li2SO4, 100 mM Bis Tris Propane pH 6.5-9.0, 10% ethylene glycol. Crystals grew within 3 days. Crystals were cryo protected in mother liquor supplemented with […] and flash cooled in liquid nitrogen for storage and data collection. All diffraction datasets were collected and processed by Helix Biostructures at ESRF beamline TD30B on Sep. 1, 2023. […] The initial structures were determined through molecular replacement with Phaser in CCP4 suite with the structure […] 7APJ as a search model. […]
Target sequence in this assay (P31749 with tags, fused parts or gaps DEL120-128/S129A/G130S/INS132HT/E133D): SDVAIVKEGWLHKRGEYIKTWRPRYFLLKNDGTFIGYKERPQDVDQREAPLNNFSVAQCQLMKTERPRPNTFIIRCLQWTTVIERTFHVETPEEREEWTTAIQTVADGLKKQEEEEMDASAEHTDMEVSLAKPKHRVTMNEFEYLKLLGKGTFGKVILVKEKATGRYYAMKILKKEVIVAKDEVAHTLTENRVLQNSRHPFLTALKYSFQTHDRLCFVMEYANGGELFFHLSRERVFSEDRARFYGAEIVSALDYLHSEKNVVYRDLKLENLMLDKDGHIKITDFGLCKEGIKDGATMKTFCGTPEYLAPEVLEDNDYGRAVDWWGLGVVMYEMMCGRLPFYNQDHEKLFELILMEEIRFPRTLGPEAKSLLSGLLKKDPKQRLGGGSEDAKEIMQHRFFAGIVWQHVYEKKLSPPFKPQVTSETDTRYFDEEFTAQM
Target sequence in this assay (as listed by the source partner): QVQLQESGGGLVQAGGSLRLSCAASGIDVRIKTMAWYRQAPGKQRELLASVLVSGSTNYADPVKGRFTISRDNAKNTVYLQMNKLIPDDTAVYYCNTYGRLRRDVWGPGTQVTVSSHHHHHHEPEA

[4] = biological target: T4, AKT2 (Homo sapiens, UniProt P31751); experiment: Live cell AKT2 target engagement by NanoBRET competitive probe displacement; format: cell-based; settings: HEK293 cells transfected with kinase-NanoLuciferase fusion, 2 h at 37° C.
T4 construct: expressed in transfected cells; host or cells: HEK293
Method in brief: as §1

[5] = biological target: T3, AKT1 WT; experiment: Compound 13/AKT1 WT co-crystallization complex, crystal structure; format: binding; settings: FIG. 1C
Target sequence in this assay (P31749 with tags, fused parts or gaps DEL120-128/S129A/G130S/INS132HT/E133D): as the sequence (P31749 with tags, fused parts or gaps DEL120-128/S129A/G130S/INS132HT/E133D) above

[6] = biological target: T5, AKT1 E17K (Homo sapiens, UniProt P31749, E17K); experiment: Live cell AKT1 E17K target engagement by NanoBRET competitive probe displacement; format: cell-based; settings: HEK293 cells transfected with kinase-NanoLuciferase fusion, 2 h at 37° C.
T5 construct: expressed in transfected cells; host or cells: HEK293
Method in brief: as §1

[7] = test system: LAPC4 prostate cancer cells; experiment: Antiproliferative effects in LAPC4 cells (CellTiter Glo); format: cell-based; settings: Homo sapiens, LAPC4, 72 h, LAPC4 cells (AKT1 E17K allele), read-out: LAPC4 proliferation IC50
Method in brief: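 Cells grown in IMDM supplemented with 12% FBS plus 1% P/S were treated for 72 h with DMSO-dissolved compounds. ATP-based luminescence was fitted to a log(inhibitor) versus response Hill model, giving IC50.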

[8] = biological target: T6, AKT1 E17K (Homo sapiens, UniProt P31749, DEL120-128/E133D/E17K/G130S/INS132HT/S129A); experiment: Co-crystallization showing covalent complex formation with AKT1 E17K; settings: AKT1(DrLink)-E17K-NB41 complex, electron density
T6 construct: Akt1(DrLink)-WT/E17K were gene synthesized and cloned by Gibson assembly into the pFastBac vector; His8 followed by TEV site (MSHHHHHHHHGSENLYFQS) (N); DrLink (replaced PH-kinase interdomain linker, part of the construct's name); made in house; host or cells: Akt1(DrLink): baculovirus/Sf9; NB41: E. coli Rosetta 2(DE3)pLysS
Procedure: as §2, §3, §4, §5

T2 sequence (P31749 with tags, fused parts or gaps E17K/DEL120-128/S129A/G130S/INS132HT/E133D): as the sequence (P31749 with tags, fused parts or gaps DEL120-128/S129A/G130S/INS132HT/E133D) above, with E16K counted along it
T2 sequence (as listed by the source partner): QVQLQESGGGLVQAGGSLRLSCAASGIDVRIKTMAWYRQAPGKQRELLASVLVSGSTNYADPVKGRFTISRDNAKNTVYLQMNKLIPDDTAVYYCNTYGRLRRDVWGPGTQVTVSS
T6 sequence (P31749 with tags, fused parts or gaps E17K/DEL120-128/S129A/G130S/INS132HT/E133D): as the sequence (P31749 with tags, fused parts or gaps DEL120-128/S129A/G130S/INS132HT/E133D) above, with E16K counted along it
T1 sequence (P31749 whole entry, the tested form may be a part): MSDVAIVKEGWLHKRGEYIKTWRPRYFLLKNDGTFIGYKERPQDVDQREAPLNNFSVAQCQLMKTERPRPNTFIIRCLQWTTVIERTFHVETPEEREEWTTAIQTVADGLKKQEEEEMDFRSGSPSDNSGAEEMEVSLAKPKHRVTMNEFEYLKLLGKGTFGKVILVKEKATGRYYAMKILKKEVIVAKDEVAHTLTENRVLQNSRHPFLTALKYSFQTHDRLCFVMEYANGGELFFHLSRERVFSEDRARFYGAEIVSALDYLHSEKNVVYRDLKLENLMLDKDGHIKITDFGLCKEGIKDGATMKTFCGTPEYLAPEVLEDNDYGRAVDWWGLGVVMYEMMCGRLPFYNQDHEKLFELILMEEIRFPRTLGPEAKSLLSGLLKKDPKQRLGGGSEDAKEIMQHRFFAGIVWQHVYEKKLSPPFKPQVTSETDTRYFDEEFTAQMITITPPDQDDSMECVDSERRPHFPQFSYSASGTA
T4 sequence (P31751 whole entry, the tested form may be a part): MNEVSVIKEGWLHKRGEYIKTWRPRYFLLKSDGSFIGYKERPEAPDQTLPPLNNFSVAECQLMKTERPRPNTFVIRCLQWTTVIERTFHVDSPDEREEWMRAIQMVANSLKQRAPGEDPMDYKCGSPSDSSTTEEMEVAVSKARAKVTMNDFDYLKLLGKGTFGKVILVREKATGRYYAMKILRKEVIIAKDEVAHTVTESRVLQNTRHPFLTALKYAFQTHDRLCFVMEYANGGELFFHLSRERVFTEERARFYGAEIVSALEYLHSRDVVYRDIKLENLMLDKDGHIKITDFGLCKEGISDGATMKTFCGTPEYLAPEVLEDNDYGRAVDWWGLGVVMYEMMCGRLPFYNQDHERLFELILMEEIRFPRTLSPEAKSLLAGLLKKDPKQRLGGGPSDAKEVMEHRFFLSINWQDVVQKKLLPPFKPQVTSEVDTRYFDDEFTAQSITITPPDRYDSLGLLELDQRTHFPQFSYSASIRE
T5 sequence (P31749 whole entry E17K, the tested form may be a part): as the sequence (P31749 whole entry, the tested form may be a part) above, with E17K counted along it

With `C=CC(=O)N1CCC(N[C@H]2CCc3cc(-n4c(-c5cccnc5N)nc5ccc(-n6cccn6)nc54)ccc32)CC1` [Example 13, 1-(4-{[(1S)-5-[2-(2-aminopyridin-3-yl)-5-(pyrazol-1-yl)imidazo[4,5-b]pyridin-3-yl]-2,3-dihydro-1H-inden-1-yl]amino}piperidin-1-yl)prop-2-en-1-one] the IC50 [1] was 17 nM, the “interaction seen in the co-crystal structure (site of covalent attachment)” value [2] was “covalent bond between C296 cysteine residue of AKT E17K and Compound 13” and the “covalent bond formation in co-crystal structure” value [3] was “covalent bond formation with C296”. The IC50 [4] was 224 nM, the “interaction seen in the co-crystal structure (site of covalent attachment)” value [5] was “covalent bond between C296 cysteine residue of AKT1 WT and Compound 13” and the IC50 [6] was 56.1 nM. The IC50 [7] was 144 nM and the “covalent bond formation in co-crystal structure” value [8] was “covalent bond formation with C296”.
